Reference: ChEMBL document CHEMBL3286126, “Synthesis of novel β-carboline based chalcones with high cytotoxic activity against breast cancer cells” (Bioorg Med Chem Lett, 2014)
Calls of active or inactive are those of the source. The rule behind the calls is not given here.

Legend:
[1] = Cytotoxicity against human MIAPaCa2 cells at 10 uM after 48 hrs by SRB assay; type: functional; details: MIA PaCa-2, 48 h
[2] = Cytotoxicity against human PLC/PRF/5 cells at 10 uM after 48 hrs by SRB assay; type: functional; details: PLC-PRF-5, 48 h
[3] = test system: SK-OV-3; test: Cytotoxicity against human SKOV3 cells at 10 uM after 48 hrs by SRB assay; type: functional; details: SK-OV-3, 48 h
[4] = test system: DU-145; test: Cytotoxicity against human DU145 cells at 10 uM after 48 hrs by SRB assay; type: functional; details: DU-145, 48 h
[5] = Cytotoxicity against human A172 cells at 10 uM after 48 hrs by SRB assay; type: functional; details: A 172, 48 h
[6] = test system: A549; test: Cytotoxicity against human A549 cells at 10 uM after 48 hrs by SRB assay; type: functional; details: A549, 48 h
[7] = test system: MCF7; test: Cytotoxicity against human MCF7 cells at 10 uM after 48 hrs by SRB assay; type: functional; details: MCF7, 48 h
[8] = Cytotoxicity against human DLD1 cells at 10 uM after 48 hrs by SRB assay; type: functional; details: DLD-1, 48 h
[9] = Cytotoxicity against human A172 cells after 48 hrs by SRB assay; type: functional, cell-based; details: A 172, 48 h
[10] = test system: MCF7; test: Cytotoxicity against human MCF7 cells after 48 hrs by SRB assay; type: functional, cell-based; details: for IC50: MCF7, 48 h
[11] = test system: A549; test: Cytotoxicity against human A549 cells after 48 hrs by SRB assay; type: functional, cell-based; details: A549, 48 h
[12] = test system: PC-3; test: Cytotoxicity against human PC3 cells after 48 hrs by SRB assay; type: functional, cell-based; details: PC-3, 48 h
[13] = test system: SK-OV-3; test: Cytotoxicity against human SKOV3 cells after 48 hrs by SRB assay; type: functional, cell-based; details: SK-OV-3, 48 h
[14] = test system: Vero; test: Cytotoxicity against African green monkey Vero cells after 48 hrs by SRB assay; type: cell-based; details: Chlorocebus sabaeus
[15] = test system: 4T1; test: Cytotoxicity against mouse 4T1 cells after 48 hrs by SRB assay; type: functional, cell-based
[16] = test system: MDA-MB-231; test: Cytotoxicity against human MDA-MB-231 cells after 48 hrs by SRB assay; type: functional, cell-based
[17] = test system: MCF7; test: Induction of apoptosis in human MCF7 cells assessed as necrotic cells after 24 hrs using 7-AAD/annexin-V staining by flow cytometry analysis; type: functional
[18] = test system: MCF7; test: Induction of apoptosis in human MCF7 cells assessed as viable cells after 24 hrs using 7-AAD/annexin-V staining by flow cytometry analysis; type: functional
[19] = test system: MCF7; test: Induction of apoptosis in human MCF7 cells assessed as late apoptotic cells after 24 hrs using 7-AAD/annexin-V staining by flow cytometry analysis; type: functional
[20] = test system: MCF7; test: Induction of apoptosis in human MCF7 cells assessed as early apoptotic cells after 24 hrs using 7-AAD/annexin-V staining by flow cytometry analysis; type: functional
[21] = test system: MCF7; test: Induction of apoptosis in human MCF7 cells assessed as DNA fragmentation at 10 uM after 24 hrs […] by APOBrdU TUNNEL assay; type: functional, cell-based

| SMILES | inhibition at 10 µM [1] [%] | inhibition at 10 µM [2] [%] | inhibition at 10 µM [3] [%] | inhibition at 10 µM [4] [%] | inhibition at 10 µM [5] [%] | inhibition at 10 µM [6] [%] | inhibition at 10 µM [7] [%] | inhibition at 10 µM [8] [%] | also measured |
| --- | --- | --- | --- | --- | --- | --- | --- | --- | --- |
| Cc1ccc(C(=O)/C=C/c2nccc3c2[nH]c2ccccc23)cc1 | 2.1 | 70.5 | 5.1 | 11.4 | 60.5 | 9.91 | 20.9 | 42.4 |  |
| COc1cccc2c1C(=O)c1c(O)c3c(c(O)c1C2=O)C[C@@](O)(C(=O)CO)C[C@@H]3O[C@H]1C[C@H](N)[C@H](O)[C@H](C)O1 [DOXORUBICIN] | 85.1 | 90.7 | 69.2 | 73.9 | 67.6 | 69 | 56.9 | 73.2 |  |
| COc1cc(C(=O)/C=C/c2nccc3c2[nH]c2ccccc23)cc(OC)c1OC | 84.8 | 73.9 | 36.6 | 76.1 | 65 | 73.4 | 86.8 | 80.6 | IC50 [9]: > 10 µM; Activity [10]: Dose-dependent effect; IC50 [10]: 3.29 µM; IC50 [11]: 5.41 µM; IC50 [12]: > 10 µM; IC50 [13]: > 10 µM; IC50 [14]: > 10 µM; Activity [15]: Dose-dependent effect; Activity [16]: Dose-dependent effect |
| COc1ccc(C(=O)/C=C/c2nccc3c2[nH]c2ccccc23)cc1OC | 87.5 | 78.3 | 41.6 | 71.9 | 74.3 | 84.7 | 94.5 | 88.1 | IC50 [9]: 3.33 µM; Activity [10]: Dose-dependent effect; IC50 [10]: 2.25 µM; IC50 [11]: 2.31 µM; IC50 [12]: 5.99 µM; IC50 [13]: > 10 µM; IC50 [14]: > 10 µM; Activity [15]: Dose-dependent effect; Activity [16]: Dose-dependent effect; Activity [17]: 3.12%; Activity [18]: 37%; Activity [19]: 39.5%; Activity [20]: 20.4%; Activity [21]: Active |
| CCn1c2ccccc2c2ccnc(/C=C/C(=O)c3ccc(OC)c(OC)c3)c21 | 15.3 | 56.2 | 57.6 | 56.8 | 70.1 | 35.6 | 29.6 | 66 |  |
| CCn1c2ccccc2c2ccnc(/C=C/C(=O)c3cc(OC)c(OC)c(OC)c3)c21 | 24.7 | 70.7 | 68.5 | 60.1 | 81.1 | 44.4 | 32.7 | 73.4 |  |
| O=C(/C=C/c1nccc2c1[nH]c1ccccc12)c1ccccc1 | 21.7 | 76.7 | 0.91 | 20.1 | 78.4 | 11.7 | 32.9 | 70.1 |  |
| O=C(/C=C/c1nccc2c1[nH]c1ccccc12)c1ccc(Br)cc1 | -4.72 | 26.4 | -2.43 | -0.24 | 5.41 | 9.19 | 7.15 | 14.9 |  |
| CCn1c2ccccc2c2ccnc(/C=C/C(=O)c3ccc(C)cc3)c21 | 11.9 | 34.1 | 47.7 | 35 | 26.6 | 16.4 | 30 | 44.1 |  |
| COc1cc(C(=O)/C=C/c2nccc3c4ccccc4n(C)c23)cc(OC)c1OC | 19 | 40.1 | 37.4 | 59.5 | 38.8 | 33.8 | 28.8 | 49.5 |  |
